Where “and” joins values, the source holds several entries; their conditions need not be identical. Equal entries are not always repeated. Where two headings read alike, the source gives them in different places.

The text below walks through data of patent US20050143628A1, “Methods for characterizing tissue or organ condition or status” (priority 2003, published 2005).

The subject of series [1] is rat liver. The settings on record: for Pathological observations in liver: model false positive. The text has this:
(§1) After 3-day treatment, rat liver samples were collected for RNA extraction and histo-pathology examination. Sera from the same rats were subjected to clinical chemistry monitoring.

Series [2] has as its system rat liver. Kind of series: Serum clinical chemistry: aspartate aminotransferase (AST) after 3-day treatment.
Description: as §1
(§2) Liver injury was identified by the individual clinical chemistry measurement if its level was outside +/− two standard deviations of the averaged level of normal animals.

Series [3] has as its system rat liver. Put plainly: Serum clinical chemistry: alanine aminotransferase (ALT) after 3-day treatment.
Description: as §1, §2

The test system of series [4] is rat liver. Kind of series: Serum clinical chemistry: total bilirubin (Tbil) after 3-day treatment.
Description: as §1, §2

Series [5] relates to rat liver. Kind of series: Serum clinical chemistry: cholesterol (Chol) after 3-day treatment.
Description: as §1, §2

Series [6] has as its system rat liver. Put plainly: Serum clinical chemistry: alkaline phosphatase (ALP) after 3-day treatment.
Description: as §1, §2

For series [7], the system named is rat liver. To be noted: in vivo, 150 mg/kg/day.
Series [8] deals with rat liver. Put plainly: Hepatotoxicity score (HS) combined from five clinical chemistry measurements, threshold -0.25. To be noted: 3-day treatment.
[9] abbreviates: rat serum, dose 500 mg/kg/day, individual rats.
Where [10] appears, read: SD rats, 10 mg/kg/day, 3-day treatment, the other two of three treated rats.
Where [11] appears, read: rat serum, dose 50 mg/kg/day, individual rats.
[12] abbreviates: rat serum, dose 1 mg/kg/day, individual rats.
[13] abbreviates: rat serum, dose 320 mg/kg/day, individual rats.
[14] abbreviates: rat serum, dose 45 mg/kg/day, individual rats.
Setting [15] is: rat serum, dose 450 mg/kg/day, individual rats.
[16] abbreviates: rat serum, dose 160 mg/kg, individual rats.
Where [17] appears, read: rat serum, dose 1600 mg/kg, individual rats.
The mark [18] stands for this setting: rat serum, dose .001 mg/kg/day, individual rats.
[19] abbreviates: rat serum, dose 100 mg/kg, individual rats.
Where [20] appears, read: rat serum, dose 1000 mg/kg, individual rats.

For `CCSCC[C@H](N)C(=O)O` [L-ethionine], the “Pathological observations in liver” value in series [1] (50 mg/kg/day treated group, 3-day treatment) is “noticeable pathological changes”.
Regarding `CC1=C(/C=C/C(C)=C/C=C/C(C)=C/CO)C(C)(C)CCC1` [Retinol], the AST in series [2] (setting [9]) was 88.000 and 157.000 and 112.000. The ALT in series [3] (setting [9]) is 27.000 and 31.000 and 37.000. The compound also returned a TBil in series [4] (setting [9]) of 0.200. Further, the Chol. in series [5] (setting [9]) was 67.000 and 50.000 and 47.000. Also, the ALP in series [6] (setting [9]) is 259.000 and 241.000 and 348.000.
Regarding `CC(=O)Oc1ccccc1C(=O)O` [aspirin], the “Liver damage call by hepatotoxicity score versus individual clinical chemistry measures” value in series [7] is reported as “positives detected by the hepatotoxicity score”. The “Histopathology examination of liver” value in series [1] (rat, in vivo, 150 mg/kg/day) was “Cellular abnormality”.
For `CN1C(=O)CN=C(c2ccccc2)c2cc(Cl)ccc21` [diazepam], the TBil in series [4] (rat, in vivo) was 0.100.
With `CCN(CC)N=O` [diethylnitrosamine], the “Pathological observations in liver” value in series [1] (100 mg/kg/day treated group, 3-day treatment) is listed as “noticeable pathological changes”.
With `CN(C)C=O` [dimethlformamide], the “Pathological observations in liver” value in series [1] (1000 mg/kg/day treated group, 3-day treatment) is listed as “noticeable pathological changes”.
For the compound `C[C@]12CC[C@@H]3c4ccc(O)cc4CC[C@H]3[C@@H]1CC[C@@H]2O[C@@H]1O[C@H](C(=O)O)[C@@H](O)[C@H](O)[C@H]1O` [estradiol glucuronide], in series [3] (setting [10]), the “Liver injury by ALT” value is on record as “showed liver injury”. Also, the “Liver damage call by hepatotoxicity score versus individual clinical chemistry measures” value in series [8] (SD rat, high dose 10 mg/kg/day) is given as “positives detected by the hepatotoxicity score”. For the same compound, in series [6] (setting [10]), the “Liver injury by ALP” value is recorded as “showed liver injury”. The “Histopathology examination of liver” value in series [1] (SD rats, 10 mg/kg/day treatment group, 3-day treatment) was “Cellular abnormality”.
`CN(C)C(=N)N=C(N)N` [metformin]: the “Liver damage call by hepatotoxicity score versus individual clinical chemistry measures” value in series [8] (one SD rat, 900 mg/kg/day) is recorded as “false negatives”. The “Histopathology examination of liver” value in series [1] (rat, in vivo, 900 mg/kg/day) is given as “no observable liver abnormality”.
As for `C[C@H]1C(=O)O[C@@H]2CCN3CC=C(COC(=O)[C@](C)(O)[C@]1(C)O)[C@H]23` [monocrotaline, reference compound], in series [2] (setting [11]), the AST is 123.000 and 135.000 and 270.000. Moreover, in series [3] (setting [11]), the ALT was 44.000 and 64.000 and 610.000. The TBil in series [4] (setting [11]) was 0.200 (2×) and 1.500. The Chol. in series [5] (setting [11]) was 54.000 and 61.000 and 69.000. The “Liver damage call by hepatotoxicity score versus individual clinical chemistry measures” value in series [8] (one SD rat, high dose 50 mg/kg/day) is “false negatives”. Moreover, the ALP in series [6] (setting [11]) was 194.000 and 211.000 and 298.000. In addition, the “Histopathology examination of liver” value in series [1] (SD rat, 50 mg/kg/day, 3-day treatment, HS false negative sample) is listed as “no observable liver abnormality”.
`CC[C@H]1/C=C/C=C/C[C@@H](C)[C@H](O)[C@@](C)(O)C(=O)[C@@H](C)[C@H](O)[C@@H](C)C(=O)[C@@H](C)[C@H](O)[C@@H](C)/C=C/C(=O)O[C@@H]2[C@H](C)[C@H](CC1)O[C@]1(CC[C@H](C)[C@H](C[C@@H](C)O)O1)[C@H]2C` [oligomycin]: in series [2] (setting [12]), the AST was 72.000 (2×) and 75.000. Also, in series [3] (setting [12]), the ALT was 44.000 and 46.000 and 58.000. In series [4] (setting [12]), the TBil is on record as 0.200. Further, the Chol. in series [5] (setting [12]) was 47.000 and 72.000 and 59.000. Further, in series [6] (setting [12]), the ALP is 361.000 and 289.000 and 397.000.
With `C1CCC(C(CC2CCCCN2)C2CCCCC2)CC1` (centres unmarked) [perhexilene, reference compound], the AST in series [2] (setting [13]) was 103.000 and 116.000 and 98.000. For the same compound, in series [3] (setting [13]), the ALT was 51.000 and 129.000 and 31.000. Also, in series [4] (setting [13]), the TBil is 0.100. For the same compound, in series [5] (setting [13]), the Chol. was 45.000 and 44.000 and 66.000. The ALP in series [6] (setting [13]) is 248.000 and 340.000 and 245.000.
As for `O=C1NC(=O)C(c2ccccc2)(c2ccccc2)N1` [phenytoin], the AST in series [2] (setting [14]) is 65.000 and 81.000; in series [2] (setting [15]) it was 130.000 and 71.000 and 65.000. Moreover, the ALT in series [3] (setting [14]) is 26.000 and 19.000; in series [3] (setting [15]), 49.000 and 38.000 and 24.000. Besides, the TBil was 0.200 in series [4] (setting [14]); 0.200 and 0.100 (2×) in series [4] (setting [15]). For the same compound, the Chol. in series [5] (setting [14]) is 77.000 and 71.000; in series [5] (setting [15]), 61.000 and 73.000 and 66.000. The ALP in series [6] (setting [14]) is 199.000 and 214.000; in series [6] (setting [15]), 255.000 and 233.000 and 312.000.
Turning to `CN[C@@H]1[C@H](O)[C@H](NC)[C@H]2O[C@@]3(O)C(=O)C[C@@H](C)O[C@H]3O[C@@H]2[C@H]1O` [spectinomycin], the AST is 83.000 and 74.000 and 70.000 in series [2] (setting [16]); 98.000 and 95.000 and 86.000 in series [2] (setting [17]). The ALT in series [3] (setting [16]) is 52.000 and 36.000 and 46.000; in series [3] (setting [17]), 60.000 and 44.000 and 30.000. The TBil in series [4] (setting [16]) and in series [4] (setting [17]) was 0.100 throughout. The Chol. in series [5] (setting [16]) is 60.000 and 59.000 and 54.000; in series [5] (setting [17]), 36.000 and 62.000 and 26.000. The ALP in series [6] (setting [16]) is 174.000 and 181.000; in series [6] (setting [17]) it was 246.000 and 189.000 and 176.000.
Regarding `CC/C(=C(\c1ccccc1)c1ccc(OCCN(C)C)cc1)c1ccccc1` [tamoxifen, reference compound], the “Histopathology examination of liver” value in series [1] (rat, in vivo, 5 mg/kg/day) was “no observable liver abnormality”.
Regarding `CC(C)(C)c1ccc(C(O)CCCN2CCC(C(O)(c3ccccc3)c3ccccc3)CC2)cc1` (centres unmarked) [terfenadine], the TBil turned out to be 0.100 in series [4] (rat, in vivo, 15 mg/kg) and 0.100 in series [4] (rat, in vivo, 150 mg/kg).
On to `Cn1c(=O)c2[nH]cnc2n(C)c1=O` [theophylline], for which the TBil in series [4] (rat, in vivo, 75 mg/kg) was determined as 0.100.
Turning to TNFalpha, the AST in series [2] (setting [18]) is 70.000 (2×) and 59.000. Further, the ALT in series [3] (setting [18]) is 53.000 and 48.000 and 55.000. Besides, the TBil in series [4] (setting [18]) was 0.200 (2×) and 0.100. Besides, in series [5] (setting [18]), the Chol. was 50.000 and 60.000 (2×). For the same compound, the ALP in series [6] (setting [18]) is 728.000 and 255.000 and 312.000.
As for aflatoxin B, the AST in series [2] (rat, in vivo) was 206.000 and 132.000 and 156.000. Besides, the ALT in series [3] (rat, in vivo) was 81.000 and 48.000 and 59.000. For the same compound, in series [4] (rat, in vivo), the TBil was found to be 0.200. The Chol. in series [5] (rat, in vivo) is 64.000 and 75.000 and 63.000. Also, in series [6] (rat, in vivo), the ALP is 297.000 and 166.000 and 217.000.
On to microcystin, for which the AST in series [2] (rat, in vivo) is 204.000 and 384.000 and 296.000. The ALT in series [3] (rat, in vivo) was 140.000 and 258.000 and 144.000. In addition, the TBil in series [4] (rat, in vivo) was 0.600 and 0.400. The Chol. in series [5] (rat, in vivo) was 84.000 and 67.000 and 95.000. Moreover, the ALP in series [6] (rat, in vivo) is 518.000 and 427.000 and 514.000.
Turning to penicillin, the AST was 127.000 and 144.000 in series [2] (setting [19]); 134.000 (2×) and 80.000 and 90.000 in series [2] (setting [20]). Also, the ALT was 51.000 and 41.000 and 44.000 in series [3] (setting [19]); 52.000 (2×) and 25.000 and 42.000 in series [3] (setting [20]). Also, the TBil in series [4] (setting [19]) and in series [4] (setting [20]) was 0.100 each time. Also, the Chol. in series [5] (setting [19]) is 49.000 and 37.000 and 69.000; in series [5] (setting [20]), 41.000 (2×) and 43.000 and 73.000. Besides, the ALP is 290.000 and 247.000 in series [6] (setting [19]); 215.000 (2×) and 247.000 and 253.000 in series [6] (setting [20]).
